Experimental data: paper PMC10406430 (Neuro-Oncology Advances, 2023)
Where two headings read alike, the source gives them in different places. Marks after values point to notes of the source that are not given here.

Key:
[1] = Plasma pharmacokinetics of PAC-1 and TMZ (LC-MS/MS, non-compartmental analysis); assay type: in vivo, human; conditions: for AUC(0-inf) / CL/F / Cmax / Tmax / half-life: human, plasma, po; for AUC(0-inf): read-out: AUC0-∞, geometric mean (geometric CV%); for CL/F: read-out: CL/F, geometric mean (geometric CV%) (converted); for Cmax: read-out: Cmax, geometric mean (geometric CV%); for Tmax: read-out: Tmax, median (range); for half-life: read-out: t1/2-λ, geometric mean (geometric CV%) (converted)
Procedure: Pharmacokinetics (PK) were assessed in each dose cohort for PAC-1 following doses administered on days 7 (without TMZ) and 12 (with TMZ) of the first cycle and TMZ on day 12 of cycle 1. Both drugs were administered under fasting conditions in the morning for PAC-1 and morning or evening for TMZ. To facilitate the PK study and amplify any PK interaction between drugs, the administration of TMZ was standardized to occur in the morning on cycle 1, day 12 two hours before PAC-1. Plasma samples were collected on the mornings of days 7 and 12 of cycle 1 prior to oral ingestion of TMZ (day 12 only), 1 hour (day 12) or immediately (day 7) before administration of PAC-1 and at 0.5, 1, 2, 4, 6, 8, 10, and 24 hours after ingestion of PAC-1 (both days). The PAC-1 and TMZ concentrations in plasma were determined by validated high-performance liquid chromatography and tandem mass spectrometry (LC-MS/MS) assays. Non-compartmental analysis of the PAC-1 and TMZ plasma concentration-time data was performed using WinNonlin version 8.1 (Certara. L.P., Princeton, NJ). The analysis occurred at steady state for PAC-1 and non-steady state conditions for TMZ. Parameters included: maximum plasma concentration (Cmax), time at Cmax (Tmax), minimum plasma concentration at steady-state (Css,min), area under the PAC-1 plasma concentration-time curve over the steady-state dosing interval (AUC0-τ,ss), area under the TMZ plasma concentration-time curve from time zero to infinity (AUC0-∞), oral clearance (CL/F), volume of distribution (V/F), and terminal phase half-life (t1/2).
The PK parameters were logarithmically (natural) transformed and Css-max, Css-min, and AUC0-τ,ss normalized for a 500 mg dose across dose groups for the analysis by multiplying the parameter by the quotient of 500 mg divided by the actual dose. […] Lack of interaction was concluded when the 90% CI for the ratio was contained within the conventional bioequivalence range of 0.80 to 1.25.

[2] = tested on: cytochrome P450 isozymes (CYP) 2C19, 2D6, and 3A4; test: In vitro studies of hepatic metabolism pathways; assay type: in vitro ADME; conditions: preliminary evidence from in vitro studies (unpublished); CYP 2C19, 2D6, 3A4
[3] = tested on: P-glycoprotein efflux pump; conditions: cited from earlier work
[4] = mice; consistent with cLogBB prediction models; cited from earlier work
human glioma cell lines = conditions: single agent and in combination with TMZ; cited from earlier work
[5] = tested on: intracranial models in rodents; conditions: syngeneic and xenograft models, single agent and in combination with TMZ; cited from earlier work
glioma = conditions: PAC-1 in combination with TMZ and radiation; cited from earlier work
systemic solid tumors = conditions: cited from earlier work
[6] = parameters: method as in earlier work; conditions: animal studies and a single clinical trial; ref 1-3 (supplement list); cited from earlier work
[7] = PAC-1 375 mg/day oral, Cycle 1 Day 7 (alone)
[8] = PAC-1 375 mg/day oral, Cycle 1 Day 12 (with TMZ)
[9] = PAC-1 500 mg/day oral, Cycle 1 Day 7 (alone)
[10] = PAC-1 500 mg/day oral, Cycle 1 Day 12 (with TMZ)
[11] = PAC-1 625 mg/day oral, Cycle 1 Day 7 (alone)
[12] = PAC-1 625 mg/day oral, Cycle 1 Day 12 (with TMZ)
[13] = PAC-1, Cycle 1 Day 12 (with TMZ)/Cycle 1 Day 7 (alone)
[14] = PAC-1, Cycle 1 Day 12 (with TMZ)/Cycle 1 Day 7 (alone), normalized to 500 mg
[15] = 150 mg/m2, TMZ 150 mg/m^2 oral with PAC-1 375 mg/day
[16] = 150 mg/m2, TMZ 150 mg/m^2 oral with PAC-1 500 mg/day
[17] = 150 mg/m2, TMZ 150 mg/m^2 oral with PAC-1 625 mg/day

C=CCc1cccc(/C=N/NC(=O)CN2CCN(Cc3ccccc3)CC2)c1O [PAC-1, procaspase-activating compound-1]
increase in PAC-1 CL/F with dexamethasone co-administration ([1]; 375 and 500 mg/day groups): approximately 18% | AUCss,0-τ, geometric mean (geometric CV%) [1, 7]: 23434 (12.0) h*ng/ml | CL/F, geometric mean (geometric CV%) [1, 7]: 185 (26.6) ml/h/kg | Cmax, geometric mean (geometric CV%) [1, 7]: 1728 (19.6) ng/ml | Css-min, geometric mean (geometric CV%) [1, 7]: 647.8 (11.0) ng/ml | Tmax, median (range) [1, 7]: 3.00 (1.98-6.00) h | V/F, geometric mean (geometric CV%) [1, 7]: 6.1 (36.1) L/kg | AUCss,0-τ, geometric mean (geometric CV%) [1, 8]: 22519 (13.8) h*ng/ml | CL/F, geometric mean (geometric CV%) [1, 8]: 193 (32.9) ml/h/kg | Cmax, geometric mean (geometric CV%) [1, 8]: 1802 (19.7) ng/ml | Css-min, geometric mean (geometric CV%) [1, 8]: 525.4 (12.3) ng/ml | Tmax, median (range) [1, 8]: 3.00 (1.98 - 9.83) h | V/F, geometric mean (geometric CV%) [1, 8]: 5.4 (27.3) L/kg | t1/2-λ, geometric mean (geometric CV%) [1, 8]: 20.0 (12.0) h | AUCss,0-τ, geometric mean (geometric CV%) [1, 9]: 32823 (28.0) h*ng/ml | CL/F, geometric mean (geometric CV%) [1, 9]: 203 (38.1) ml/h/kg | Cmax, geometric mean (geometric CV%) [1, 9]: 3026 (34.0) ng/ml | Css-min, geometric mean (geometric CV%) [1, 9]: 776.8 (27.9) ng/ml | Tmax, median (range) [1, 9]: 2.34 (0.50- 5.92) h | V/F, geometric mean (geometric CV%) [1, 9]: 5.1 (53.0) L/kg | t1/2-λ, geometric mean (geometric CV%) [1, 9]: 17.6 (18.9) h | AUCss,0-τ, geometric mean (geometric CV%) [1, 10]: 34274 (13.2) h*ng/ml | CL/F, geometric mean (geometric CV%) [1, 10]: 194 (26.0) ml/h/kg | Cmax, geometric mean (geometric CV%) [1, 10]: 2938 (32.2) ng/ml | Css-min, geometric mean (geometric CV%) [1, 10]: 770.0 (19.6) ng/ml | Tmax, median (range) [1, 10]: 2.01 (1.92 - 3.07) h | V/F, geometric mean (geometric CV%) [1, 10]: 5.0 (40.3) L/kg | t1/2-λ, geometric mean (geometric CV%) [1, 10]: 17.9 (31.1) h | AUCss,0-τ, geometric mean (geometric CV%) [1, 11]: 24634 (45.2) h*ng/ml | CL/F, geometric mean (geometric CV%) [1, 11]: 322 (38.0) ml/h/kg | Cmax, geometric mean (geometric CV%) [1, 11]: 1876 (47.5) ng/ml | Css-min, geometric mean (geometric CV%) [1, 11]: 565.9 (47.4) ng/ml | Tmax, median (range) [1, 11]: 1.98 (0.82 – 2.00) h | V/F, geometric mean (geometric CV%) [1, 11]: 8.7 (40.6) L/kg | t1/2-λ, geometric mean (geometric CV%) [1, 11]: 18.7 (42.9) h | AUCss,0-τ, geometric mean (geometric CV%) [1, 12]: 21854 (39.7) h*ng/ml | CL/F, geometric mean (geometric CV%) [1, 12]: 363 (31.2) ml/h/kg | Cmax, geometric mean (geometric CV%) [1, 12]: 2124 (57.9) ng/ml | Css-min, geometric mean (geometric CV%) [1, 12]: 480.0 (40.4) ng/ml | Tmax, median (range) [1, 12]: 1.03 (1.00 - 4.17) h | V/F, geometric mean (geometric CV%) [1, 12]: 9.7 (17.0) L/kg | t1/2-λ, geometric mean (geometric CV%) [1, 12]: 18.5 (32.9) h | PK interactions between PAC-1 and TMZ ([1]; PAC-1 375, 500 or 625 mg/day with TMZ 150 mg/m^2): did not identify PK interactions | CL/F, Geometric Least-Square Mean Ratio (90%CI) [1, 13]: 1.07 (0.98, 1.17) | t1/2-λ, Geometric Least-Square Mean Ratio (90%CI) [1, 13]: 1.04 (0.90, 1.22) | AUCss,0-τ, Geometric Least-Square Mean Ratio (90%CI) [1, 14]: 0.93 (0.85, 1.02) ^† | Cmax, Geometric Least-Square Mean Ratio (90%CI) [1, 14]: 1.02 (0.85, 1.23) ^† | Css-min, Geometric Least-Square Mean Ratio (90%CI) [1, 14]: 0.86 (0.80, 0.92) ^† | dose proportionality of PAC-1 plasma concentrations ([1]; between 375 mg/day and 500 mg/day): increased proportionally | PAC-1 plasma concentrations below predicted levels ([1]; single subject in the 625 mg group, same without and with TMZ): approximately 70% | PAC-1 CL/F ([1]; subjects from the 375 and 500 mg/day groups receiving dexamethasone): 221 mL/h/kg | pathways of hepatic metabolism [2]: possible pathways of hepatic metabolism | substrate of the P-glycoprotein efflux pump [3]: not a substrate | blood-brain barrier penetration [4]: significantly penetrate the blood-brain barrier | activity against human glioma cell lines (human glioma cell lines): promising activity | activity in intracranial models in rodents [5]: promising activity | responses in canine cancer patients with glioma (glioma): all treated glioma dogs had responses, including one complete response | recommended phase 2 dose (RP2D) (systemic solid tumors; oral single agent PAC-1, patients with systemic solid tumors): 750 mg/day | relationship between PAC-1 dose and AUC (systemic solid tumors; single agent, doses up to 750 mg/day): linear relationship | extraction, elimination and oral bioavailability [6]: high extraction ratio, hepatically eliminated drug with low and variable oral bioavailability

Cn1nnc2c(C(N)=O)ncn2c1=O [temozolomide, reference compound]
impact of PAC-1 dose on PK parameters of TMZ (mixed effects analyses) ([1]; PAC-1 375, 500, 625 mg/day): did not significantly (p > 0.05) impact any PK parameters of TMZ | V/F, geometric mean (geometric CV%) ([1]; TMZ 150 mg/m^2 oral with PAC-1 375 mg/day): 0.40 (16.7) L/kg | V/F, geometric mean (geometric CV%) ([1]; TMZ 150 mg/m^2 oral with PAC-1 500 mg/day): 0.44 (15.0) L/kg | V/F, geometric mean (geometric CV%) ([1]; TMZ 150 mg/m^2 oral with PAC-1 625 mg/day): 0.44 (15.7) L/kg | AUC(0-inf) [1, 15]: 22800 ng·h/mL | CL/F [1, 15]: 2.52 mL/min/kg | Cmax [1, 15]: 7310 ng/mL | Tmax [1, 15]: 1 h | half-life [1, 15]: 112 min | AUC(0-inf) [1, 16]: 23800 ng·h/mL | CL/F [1, 16]: 2.63 mL/min/kg | Cmax [1, 16]: 7750 ng/mL | Tmax [1, 16]: 0.98 h | half-life [1, 16]: 116 min | AUC(0-inf) [1, 17]: 23900 ng·h/mL | CL/F [1, 17]: 2.67 mL/min/kg | Cmax [1, 17]: 7630 ng/mL | Tmax [1, 17]: 1 h | half-life [1, 17]: 115 min
